Measured values as given in patent US20260199368A1, “[…] SYSTEM CONTAINING REMIMAZOLAM” (LTS LOHMANN THERAPIE-SYSTEME AG, priority 2022, published 2026).

Assays:
[1] = pH and appearance of permeation donor solutions; format: physicochemical; settings: Artificial Saliva
Experimental: (§1) The permeated amount and the corresponding mucosa permeation rates of the oromucosal delivery system prepared according to Examples 2a were determined by in vitro experiments in accordance with the OECD Guideline (adopted Apr. 13, 2004) using pig mucosa with a thickness of 400 μm (mucosa oesophagus). The donor solutions were prepared by dissolving a sample film of Example 2a with a size of 5.75 cm^2 either in 5 ml artificial saliva or in 5 ml 0.9% NaCl. The remimazolam besylate was dissolved in artificial saliva so that the applied dose of RMZ was equivalent to an oromucosal delivery system containing 50 mg remimazolam in 500 μL medium, and the pH of the mixture was adjusted as indicated in Table 19. The pH was measured using a pH electrode. The permeation donor solutions were directly applied to the mucosa (diffusion area of 4.524 cm^2). The remimazolam permeated amount in the receptor medium (phosphate buffer solution pH 7.4) at a temperature of 37±1° C. was measured and the corresponding mucosa permeation rate calculated.
(§2) Due to the high variability in permeation run 1 (n=3), a second permeation experiment was performed with more replicates (n=6) to enlarge the data basis. The samples used are defined in table 15. Example 2a and Lyophilizate were dissolved in artificial saliva and 0.9% NaCl, respectively. Due to a pH adjustment in the lyophilizate/drug product, the resulting pH was slightly lower (pH 3.14 and pH 3.09) than with the Example 2a without pH adjustment (pH 3.67 and pH 3.50). A RMZ sample set to pH 3 served as a control.

[2] = Mucosa permeation study (in vitro permeation test); format: in vitro ADME, pig
Experimental: Where not otherwise indicated, the in vitro permeation test is performed with dermatomed split-thickness pig mucosa (mucosa oesophagus) with a thickness of 400 μm and an intact barrier function, and with phosphate buffer pH 7.4 as receptor medium (37° C.). The amount of active permeated into the receptor medium is determined in regular intervals using an HPLC method with a UV photometric detector by taking a sample volume. The measured amount of active permeated relates to the amount permeated between the two last sampling points and not the total amount permeated so far. Within the meaning of this invention, artificial saliva refers to an aqueous solution of 0.520 g/L potassium thiocyanate, 1.470 g/L potassium chloride, 0.190 g/L sodium dihydrogenphosphate monohydrate and 2.650 g/L sodium hydrogenphosphate dihydrate, adjusted to a pH of 7.0+/−0.05 using 1 N NaOH.
For the investigation of the potential impact of pH on the permeation, a permeation study was performed to assess the permeation of remimazolam besylate (RMZ besylate) through the mucosa in dependence of pH value. In a second run, also the performance of remimazolam lyophilizate product (RMZ besylate) vs. oromucosal delivery system was assessed.
The samples used for permeation run 1 are defined in Table 19.
as §1, §2
The permeated amount and the corresponding mucosa permeation rates of the oromucosal delivery system prepared according to Examples 2a were determined as outlined above. The remimazolam permeated amount in the receptor medium (phosphate buffer solution pH 7.4) at a temperature of 37±1° C. was measured and the corresponding mucosa permeation rate calculated.

**Q.** Which “Appearance of Donor Solution” value ([1]; run 1, set pH 2) does the source give for COC(=O)CC[C@@H]1N=C(c2ccccn2)c2cc(Br)ccc2-n2c(C)cnc21.O=S(=O)(O)c1ccccc1 [RMZ, remimazolam besylate] here?
**A.** Clear solution

**Q.** And the “Appearance of Donor Solution” value ([1]; run 1, set pH 3)?
**A.** Little RMZ solid

**Q.** What about the “Appearance of Donor Solution” value ([1]; run 1, set pH 4.5) of the same compound?
**A.** Much RMZ solid

**Q.** And the “Appearance of Donor Solution” value ([1]; run 1, set pH 6)?
**A.** Very much RMZ solid

**Q.** And the “Appearance of Donor Solution” value ([1]; run 2, set pH 3)?
**A.** Little RMZ solid

**Q.** And the “permeation rate (assessment)” value ([2]; artificial saliva, pH 4.5 and pH 6)?
**A.** poor

**Q.** What about the mucosa permeation rate ([2]; n = 3, in artificial saliva (pH 2), 2.5 min) of the same compound?
**A.** 1.98 μg/cm^2 min

**Q.** And the mucosa permeation rate ([2]; n = 3, in artificial saliva (pH 2), 7.5 min)?
**A.** 2.09 μg/cm^2 min

**Q.** And the mucosa permeation rate ([2]; n = 3, in artificial saliva (pH 2), 12.5 min)?
**A.** 1.83 μg/cm^2 min

**Q.** And the mucosa permeation rate ([2]; n = 3, in artificial saliva (pH 2), 17.5 min)?
**A.** 1.95 μg/cm^2 min

**Q.** And the mucosa permeation rate ([2]; n = 3, in artificial saliva (pH 2), 22.5 min)?
**A.** 1.92 μg/cm^2 min

**Q.** What about the mucosa permeation rate ([2]; n = 3, in artificial saliva (pH 2), 27.5 min) of the same compound?
**A.** 2.04 μg/cm^2 min

**Q.** What about the mucosa permeation rate ([2]; n = 3, in artificial saliva (pH 2), 45 min) of the same compound?
**A.** 1.36 μg/cm^2 min

**Q.** What about the mucosa permeation rate ([2]; n = 3, in artificial saliva (pH 3), 2.5 min) of the same compound?
**A.** 0.19 μg/cm^2 min

**Q.** What about the mucosa permeation rate ([2]; n = 3, in artificial saliva (pH 3), 7.5 min) of the same compound?
**A.** 0.75 μg/cm^2 min

**Q.** What about the mucosa permeation rate ([2]; n = 3, in artificial saliva (pH 3), 12.5 min) of the same compound?
**A.** 1.18 μg/cm^2 min

**Q.** And the mucosa permeation rate ([2]; n = 3, in artificial saliva (pH 3), 17.5 min)?
**A.** 1.43 μg/cm^2 min

**Q.** What about the mucosa permeation rate ([2]; n = 3, in artificial saliva (pH 3), 22.5 min) of the same compound?
**A.** 1.62 μg/cm^2 min

**Q.** And the mucosa permeation rate ([2]; n = 3, in artificial saliva (pH 3), 27.5 min)?
**A.** 1.80 μg/cm^2 min

**Q.** And the mucosa permeation rate ([2]; n = 3, in artificial saliva (pH 3), 45 min)?
**A.** 1.60 μg/cm^2 min

**Q.** And the mucosa permeation rate ([2]; n = 3, in artificial saliva (pH 4.5), 2.5 min)?
**A.** 0.09 μg/cm^2 min

**Q.** What about the mucosa permeation rate ([2]; n = 3, in artificial saliva (pH 4.5), 7.5 min) of the same compound?
**A.** 0.37 μg/cm^2 min

**Q.** And the mucosa permeation rate ([2]; n = 3, in artificial saliva (pH 4.5), 12.5 min)?
**A.** 0.22 μg/cm^2 min

**Q.** What about the mucosa permeation rate ([2]; n = 3, in artificial saliva (pH 4.5), 17.5 min) of the same compound?
**A.** 0.26 μg/cm^2 min

**Q.** What about the mucosa permeation rate ([2]; n = 3, in artificial saliva (pH 4.5), 22.5 min) of the same compound?
**A.** 0.34 μg/cm^2 min

**Q.** And the mucosa permeation rate ([2]; n = 3, in artificial saliva (pH 4.5), 27.5 min)?
**A.** 0.58 μg/cm^2 min

**Q.** What about the mucosa permeation rate ([2]; n = 3, in artificial saliva (pH 4.5), 45 min) of the same compound?
**A.** 0.26 μg/cm^2 min

**Q.** And the mucosa permeation rate ([2]; n = 3, in artificial saliva (pH 6), 2.5 min)?
**A.** 0.11 μg/cm^2 min

**Q.** What about the mucosa permeation rate ([2]; n = 3, in artificial saliva (pH 6), 7.5 min) of the same compound?
**A.** 0.18 μg/cm^2 min

**Q.** What about the mucosa permeation rate ([2]; n = 3, in artificial saliva (pH 6), 12.5 min) of the same compound?
**A.** 0.18 μg/cm^2 min

**Q.** What about the mucosa permeation rate ([2]; n = 3, in artificial saliva (pH 6), 17.5 min) of the same compound?
**A.** 0.31 μg/cm^2 min

**Q.** What about the mucosa permeation rate ([2]; n = 3, in artificial saliva (pH 6), 22.5 min) of the same compound?
**A.** 0.37 μg/cm^2 min

**Q.** And the mucosa permeation rate ([2]; n = 3, in artificial saliva (pH 6), 27.5 min)?
**A.** 0.58 μg/cm^2 min

**Q.** What about the mucosa permeation rate ([2]; n = 3, in artificial saliva (pH 6), 45 min) of the same compound?
**A.** 0.47 μg/cm^2 min

**Q.** And the mucosa permeation rate ([2]; n = 6, in artificial saliva (pH 3), 2.5 min)?
**A.** 0.01 μg/cm^2 min

**Q.** What about the mucosa permeation rate ([2]; n = 6, in artificial saliva (pH 3), 7.5 min) of the same compound?
**A.** 0.21 μg/cm^2 min

**Q.** What about the mucosa permeation rate ([2]; n = 6, in artificial saliva (pH 3), 12.5 min) of the same compound?
**A.** 0.65 μg/cm^2 min

**Q.** And the mucosa permeation rate ([2]; n = 6, in artificial saliva (pH 3), 17.5 min)?
**A.** 1.08 μg/cm^2 min

**Q.** And the mucosa permeation rate ([2]; n = 6, in artificial saliva (pH 3), 22.5 min)?
**A.** 1.38 μg/cm^2 min

**Q.** And the mucosa permeation rate ([2]; n = 6, in artificial saliva (pH 3), 27.5 min)?
**A.** 1.56 μg/cm^2 min

**Q.** And the mucosa permeation rate ([2]; n = 6, in artificial saliva (pH 3), 45 min)?
**A.** 1.23 μg/cm^2 min

**Q.** And the “mucosa permeation, comparison between samples” value ([2]; run 2, n = 6, 0.9% NaCl and artificial saliva)?
**A.** no significant difference
